Structures can show the parent of a compound that is named as a salt. Where two headings read alike, the source gives them in different places.

Data on twelve molecules can be found in patent US11098010B2 (priority 2017, dated 2021).

The subject of the assay is HBV rcDNA in HepDE19 cells. As to the kind of experiment: HepDE19 assay with bDNA quantitation of HBV rcDNA. It counts as cell-based, hepatitis B virus (HBV).
Setting [1] is: Hepatitis B virus, HepDE19, 168 h, read-out: DE-19 bDNA EC50 (μM), HepDE19 cells, inhibition of rcDNA formation, 7 day incubation, top concentration 25 μM.
[2] abbreviates: read-out: DE-19 bDNA EC50, HepDE19 cells, inhibition of rcDNA formation, 7 day incubation, top concentration 25 μM.
Where [3] appears, read: HepDE19 cells, inhibition of rcDNA formation, 7 day incubation, top concentration 25 μM, read-out: DE-19 bDNA EC50.

`O=C(N[C@H]1CCc2c(C(=O)Nc3ccc(F)c(Cl)c3)ccc(F)c21)OCC1CC(F)(F)CN1` (stereo partly drawn) [Compound 56, O-(4,4-Difluoropyrrolidin-2-yl)methyl, N—((S)-4-((3-chloro-4-fluorophenyl)carbamoyl)-7-fluoro-2,3-dihydro-1H-inden-1-yl) carbamate Hydrochloride]: the EC50 under setting [1] was determined as 0.5 µM.

As to `COC(=O)NC1CSc2c(C(=O)Nc3ccc(F)c(F)c3)ccc(F)c21` (stereo not drawn) [Compound 57, O-Methyl, N-(7-((3,4-difluorophenyl)carbamoyl)-4-fluoro-2,3-dihydrobenzo[b]thiophen-3-yl) carbamate], under setting [2], the EC50 was above 25 µM.

Consider `COC(=O)NC1CSc2c(C(=O)Nc3ccc(F)c(Cl)c3)ccc(F)c21` (stereo not drawn) [Compound 58, O-Methyl, N-(7-((3-chloro-4-fluorophenyl)carbamoyl)-4-fluoro-2,3-dihydrobenzo[b]thiophen-3-yl) carbamate], for which the EC50 under setting [2] worked out at 0.79 µM.

As for `COC(=O)NC1CSc2c(C(=O)Nc3ccc(F)c(Cl)c3)ccc(F)c21` (stereo not drawn) [Compound 59, O-Methyl, N-(7-((3-chloro-4-fluorophenyl)carbamoyl)-4-fluoro-2,3-dihydrobenzo[b]thiophen-3-yl) carbamate], the EC50 under setting [2] stood at 12 µM.

Take `O=C(N[C@@H]1c2cccc(C(=O)Nc3ccc(F)c(F)c3)c2C[C@H]1O)OCc1ccccn1` [Compound 60, O-pyridin-2-ylmethyl, N-((1R,2R)-4-((3,4-difluorophenyl)carbamoyl)-2-hydroxy-2,3-dihydro-1H-inden-1-yl) carbamate]: the EC50 under setting [3] was above 25 µM.

Take `CC(=O)N1CC(F)(F)CC1COC(=O)N[C@H]1CCc2c(C(=O)Nc3ccc(F)c(Cl)c3)ccc(F)c21` (stereo partly drawn) [Compound 61, O-(1-Acetyl-4,4-difluoropyrrolidin-2-yl)methyl, N—((S)-4-((3-chloro-4-fluorophenyl)carbamoyl)-7-fluoro-2,3-dihydro-1H-inden-1-yl) carbamate]: the EC50 under setting [1] was 0.4 µM.

Regarding `O=C(N[C@H]1CCc2c(C(=O)Nc3ccc(F)c(Cl)c3)ccc(F)c21)OCC1CCN(CC(F)(F)F)CC1` [Compound 62, O-(1-(2,2,2-Trifluoroethyl)piperidin-4-yl)methyl, N—(S)-(4-((3-chloro-4-fluorophenyl)carbamoyl)-7-fluoro-2,3-dihydro-1H-inden-1-yl) carbamate], under setting [1], the EC50 worked out at 1.8 µM.

As for `O=C(NC1CSc2c(C(=O)Nc3ccc(F)c(F)c3)ccc(F)c21)OCc1ccccn1` (stereo not drawn) [Compound 63, O-Pyridin-2-ylmethyl, N-(7-((3,4-difluorophenyl)carbamoyl)-4-fluoro-2,3-dihydrobenzo[b]thiophen-3-yl) carbamate], under setting [3], the EC50 is above 25 µM.

On to `O=C(NC1CSc2c(C(=O)Nc3ccc(F)c(F)c3)ccc(F)c21)OCc1ccccn1` (stereo not drawn) [Compound 64, O-Pyridin-2-ylmethyl, N-(7-((3,4-difluorophenyl)carbamoyl)-4-fluoro-2,3-dihydrobenzo[b]thiophen-3-yl) carbamate], for which the EC50 under setting [3] was 0.84 µM.

On to `O=C(NC1CSc2c(C(=O)Nc3ccc(F)c(Cl)c3)ccc(F)c21)OCc1ccccn1` (stereo not drawn) [Compound 65, O-Pyridin-2-ylmethyl, N-(7-((3-chloro-4-fluorophenyl)carbamoyl)-4-fluoro-2,3-dihydrobenzo[b]thiophen-3-yl) carbamate], for which, under setting [3], the EC50 is above 25 µM.

As to `O=C(NC1CSc2c(C(=O)Nc3ccc(F)c(Cl)c3)ccc(F)c21)OCc1ccccn1` (stereo not drawn) [Compound 66, O-Pyridin-2-ylmethyl, N-(7-((3-chloro-4-fluorophenyl)carbamoyl)-4-fluoro-2,3-dihydrobenzo[b]thiophen-3-yl) carbamate], the EC50 under setting [3] came out at 0.44 µM.

As for `O=C(N[C@H]1CCc2c(C(=O)Nc3ccc(F)c(Cl)c3)ccc(F)c21)OCc1cccc[n+]1[O-]` [Compound 67, (S)-2-((((4-((3-Chloro-4-fluorophenyl)carbamoyl)-7-fluoro-2,3-dihydro-1H-inden-1-yl)carbamoyl)oxy)methyl)pyridine 1-oxide], the EC50 (Hepatitis B virus, HepDE19, 168 h, HepDE19 cells, inhibition of rcDNA formation, 7 day incubation, top concentration 25 μM, read-out: DE-19 bDNA EC50) is 0.31 µM.
